Data on seven compounds can be found in patent publication US8642759B2, “Benzene sulfonamide thiazole and oxazole compounds” (GlaxoSmithKline LLC, priority 2008, dated 2014).

The test system of one test is A375P F11s. Briefly: Dose dependent tumor inhibition, A375P F11s subcutaneous xenograft. The class given is in vivo, athymic mice. Also noted: key: −: indicates no response; +: indicates growth delay (1-2× doubling); ++: indicates growth delay (>2× doubling); +++: indicates stable disease; ++++: indicates partial regression; +++++: indicates complete regression. The note with it: oral, 14-day period. The method, then:
A375P F11s were cultured in RPMI 1640 medium supplemented with 10% fetal bovine serum, 1% Penicillin-streptomycin and 1% sodium pyruvate. Tumor cells (2×10^6 A375P F11s) were implanted subcutaneously into the right flank of athymic mice on Day 1. To facilitate their growth, A375P F11s cells were suspended in Matrigel diluted 1:1 in phosphate-buffered saline before implantation. When tumors had reached approximately 200 mm^3 in volume (Day 19-22), tumor-bearing mice were randomized into study groups (n=7 or 8). Animals were dosed orally once or twice daily for a 14-day period. […] Tumor growth was measured twice a week using calipers for the duration of the study. Tumor volumes were calculated as a product of (length×width×width)/2 and median values were used to compare groups. Complete regressions (CR) were defined as three consecutive tumor measurements of ≦13.5 mm^3. Partial regressions were defined as three consecutive measurements of ≦50% of starting tumor volume. Tumor growth delay was defined as the difference in time taken for treated and control groups to reach 1000 mm^3 (T-C1000).

Test [1] concerns cancer cell lines encoding B-Raf V600E mutation. Nature of the test: 3 day proliferation assay, panel of 22 cancer cell lines encoding B-Raf V600E. The class given is cell-based. As to conditions: count of cell lines of the panel of 22.
Test [2] deals with T1, His6-tagged BRAFV600E full-length (amino acids 2-766) (Homo sapiens, UniProt P15056, V600E).
T1 construct: BRAFV600E full-length (amino acids 2-766); His6; made in house
Nature of the test: biochemical. The class given is biochemical. The method, then:
Compounds of the present invention were tested for B-Raf protein serine kinase inhibitory activity in a B-Raf Accelerated MEK ATPase assay (BRAMA). […] The BRAMA assay is a high sensitivity assay which measures an intrinsic MEK-mediated ATP hydrolysis uncoupled from downstream ERK phosphorylation by coupling the formation of ADP to NADH oxidation through the enzymes pyruvate kinase and lactate dehydrogenase. When ADP production is initiated by addition of catalytic amounts of an activated Raf enzyme and non-phosphorylated MEK, one observes robust ADP production concomitant with Raf-mediated phosphorylation of MEK. The method is disclosed in: C. Rominger, M. Schaber, E. May. Assay for B-Raf Activity Based on Intrinsic MEK ATPase Activity.

The subject of test [3] is Human melanoma cancer cells (SK-MEL-28). Briefly: Cell growth inhibition assay (CellTiter-Glo), SK-MEL-28. The class given is cell-based. The note with it: SK-MEL-28, 72 h, 3 days incubation. In general terms: In ATP-based viability assays light output follows the ATP content of the culture.
The test system of test [4] is Human colon tumor cells (Colo205). Briefly: Cell growth inhibition assay (CellTiter-Glo), Colo205. It is filed as cell-based. As to conditions: COLO 205, 72 h, 3 days incubation. The method, then:
Human colon tumor cells (Colo205) were cultured in RPMI (Mediatech 50-020-PB) containing 10% FBS and 1% penicillin-streptomycin.
The next day, compounds were diluted as follow: For 96-well assays, 13.5 μL of compound in DMSO were diluted using nine (9) serial 1:3 dilutions of 4.5 μL in 9 μL of DMSO. Medium (270 μL/well of RPMI with 10% FBS and 1% penicillin-streptomycin) was added to the plates. Aliquots (7 μL) were added to cells in the final assay giving a final DMSO concentration of 0.2%. For 384-well assays, 15 μL of compound in DMSO were diluted using nine (9) serial 1:3 dilutions of 5 μL in 10 μL of DMSO, followed by a further dilution of 5 μL of compound with 95 μL of medium, of which 2 μL were added to cells in the final assay giving a final DMSO concentration of 0.2%. Cells were incubated at 37° C., 5% CO2 for 3 days.
Total ATP was measured (as a surrogate estimate of cell number) using CellTiter-Glo® reagent (Promega G7571). Briefly, plates were removed from the incubator and allowed to equilibrate to room temperature for 30 minutes. CellTiter-Glo® (25 μL or 55 μL for 384-well or 96-well assays, respectively) reagent was added to each well and plates were shaken on an orbital plate shaker for 2 minutes. Plates were incubated without shaking for a further 30 minutes and read on an LJL Analyst GT reader in luminometer mode with an integration time of 0.5 seconds per well. Percent inhibition of cell growth was calculated relative to DMSO vehicle-treated control wells.

Where [5] appears, read: Table 1a, highest pIC50 for the one or more runs.
Where [6] appears, read: Table 3a, read-out: Activity in SK-MEL-28 Tumor Cells.
Where [7] appears, read: Table 3b (later runs), average for the one or more runs, read-out: IC50 for SK-MEL-28.
Setting [8] is: Table 2a, read-out: Activity in Colo205 Tumor Cells.
The mark [9] stands for this setting: Table 2b (later runs), average for the one or more runs, read-out: IC50 for Colo205.
Where [10] appears, read: Table 1a, highest pIC50 for the one or more runs, read-out: B-Raf Activity.
Setting [11] is: Table 1b (later runs), average pIC50 for the one or more runs, read-out: B-Raf plC50.

Read-outs that look alike come from different tables or passages of the source.

T1 sequence (P15056 2-766 V600E): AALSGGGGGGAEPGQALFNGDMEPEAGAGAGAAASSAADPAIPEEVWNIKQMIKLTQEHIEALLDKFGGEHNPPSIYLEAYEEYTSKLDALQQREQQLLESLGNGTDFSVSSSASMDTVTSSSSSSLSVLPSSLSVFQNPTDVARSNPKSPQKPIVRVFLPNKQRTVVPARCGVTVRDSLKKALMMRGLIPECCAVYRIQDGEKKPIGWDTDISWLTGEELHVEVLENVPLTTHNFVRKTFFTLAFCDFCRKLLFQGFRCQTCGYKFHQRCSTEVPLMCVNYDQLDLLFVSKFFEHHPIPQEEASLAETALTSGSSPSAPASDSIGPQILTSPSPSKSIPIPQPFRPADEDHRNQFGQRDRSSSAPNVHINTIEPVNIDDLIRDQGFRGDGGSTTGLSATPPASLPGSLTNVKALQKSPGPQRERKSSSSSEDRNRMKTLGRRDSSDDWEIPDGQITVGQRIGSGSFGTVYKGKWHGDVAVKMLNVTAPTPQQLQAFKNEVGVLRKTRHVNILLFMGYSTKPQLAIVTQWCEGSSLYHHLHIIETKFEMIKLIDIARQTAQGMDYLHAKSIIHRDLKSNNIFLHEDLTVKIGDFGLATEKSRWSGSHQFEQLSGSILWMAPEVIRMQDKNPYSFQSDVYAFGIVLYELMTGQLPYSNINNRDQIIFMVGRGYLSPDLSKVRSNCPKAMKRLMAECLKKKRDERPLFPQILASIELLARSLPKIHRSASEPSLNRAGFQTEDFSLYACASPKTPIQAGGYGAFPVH

Turning to `CC(C)(C)c1nc(-c2cccc(NS(=O)(=O)c3c(F)cccc3F)c2F)c(-c2ccnc(N)n2)s1` [Example 58a, N-{3-[5-(2-Amino-4-pyrimidinyl)-2-(1,1-dimethylethyl)-1,3-thiazol-4-yl]-2-fluorophenyl}-2,6-difluorobenzenesulfonamide], the Response entry in the test on A375P F11s (1 mg/kg qd) was “+”; in the test on A375P F11s (10 mg/kg qd), “++ (+)”; in the test on A375P F11s (100 mg/kg bid), “++++ (+)”; with A375P F11s (100 mg/kg qd), “++++ (+)”; in the test on A375P F11s (300 mg/kg bid), “++++ (+)”; with A375P F11s (300 mg/kg qd), “++++ (+)”. Moreover, the “cancer cell lines encoding B-Raf V600E not sensitive (gIC50>1000M)” value in test [1] is given as 4 out of 22. In addition, the “cancer cell lines encoding B-Raf V600E with intermediate response (gIC50≧100 nM and <1000 nM)” value in test [1] is listed as 2 out of 22.

`CC(C)c1nc(-c2ccc(F)c(NS(=O)(=O)c3c(F)cccc3F)c2)c(-c2ccnc(NCCN3CCOCC3)n2)s1` [Example 165]: the “B-Raf Activity” value in test [2] (setting [5]) was “++ (indicates at least one pIC50 measurement greater than 6 against B-Raf but no measurement greater than pIC50 of 7)”.

Consider `CC(C)c1nc(-c2ccc(F)c(NS(=O)(=O)c3c(F)cccc3F)c2)c(-c2ccnc(NCCOCCO)n2)s1` [Example 166], for which the “B-Raf Activity” value in test [2] (setting [5]) is on record as “++ (indicates at least one pIC50 measurement greater than 6 against B-Raf but no measurement greater than pIC50 of 7)”.

Turning to `CC(C)c1nc(-c2ccc(F)c(NS(=O)(=O)c3c(F)cccc3F)c2)c(-c2ccnc(NCCCCN(C)C)n2)s1` [Example 167], the “B-Raf Activity” value in test [2] (setting [5]) was “++ (indicates at least one pIC50 measurement greater than 6 against B-Raf but no measurement greater than pIC50 of 7)”.

`COCCCNc1nccc(-c2sc(C(C)C)nc2-c2ccc(F)c(NS(=O)(=O)c3c(F)cccc3F)c2)n1` [Example 168]: in test [2] (setting [5]), the “B-Raf Activity” value was “++ (indicates at least one pIC50 measurement greater than 6 against B-Raf but no measurement greater than pIC50 of 7)”.

Take `CC(C)c1nc(-c2cccc(NS(=O)(=O)c3cc(F)ccc3F)c2F)c(-c2ccnc(NCCCNS(C)(=O)=O)n2)s1` [Example 195]: the IC50 in test [3] (setting [6]) was under 100 nM; in test [3] (setting [7]), under 100 nM; in test [4] (setting [8]), under 100 nM; in test [4] (setting [9]) it was under 100 nM; in test [2] (setting [10]), under 100 nM; in test [2] (setting [11]), at most 3.16 nM.

`CC(C)c1nc(-c2cccc(NS(=O)(=O)c3cc(F)ccc3F)c2F)c(-c2ccnc(NCCCNC(=O)CO)n2)s1` [Example 196]: the IC50 in test [3] (setting [6]) is under 100 nM; in test [3] (setting [7]) it was under 100 nM; in test [4] (setting [8]) it was under 100 nM; in test [4] (setting [9]), under 100 nM; in test [2] (setting [10]) it was under 100 nM; in test [2] (setting [11]), at most 3.16 nM.
